The values that follow come from US9675702B2, “Methods and compositions for the sustained release of chromium” (JDS Therapeutics, LLC, priority 2007, dated 2017).

Like-named read-outs stand apart in the source and are kept apart here.

One data set deals with Wistar rats. In words: 12-week chromium supplementation in water of rats fed normal or high fat diet; serum glucose, cholesterol, triglycerides, free fatty acids. In kind it is in vivo. The conditions noted are these: for reduction in serum glucose levels compared with other chromium supplementation: same total elemental chromium; for serum glucose levels / serum triglyceride levels / free fatty acid levels / total serum cholesterol levels: 12 weeks; for serum glucose levels: 1.43 μg chromium in water; for total serum cholesterol levels: rats fed a normal diet (FIG. 3A). As to the method:
Wistar rats were reared at the temperature of (22±2° C.), humidity (55±5%) and a 12/12 h light/dark cycle. Pellet food and water were provided ad libitum. Rats were randomly assigned to one of eight treatment groups. Group 1: Control rats were fed standard diet (12% of calories as fat) for 12 weeks. Group 2: Rats were fed standard diet with chromium picolinate ([…] 1.43 μg chromium) included in the water for 12 weeks. Group 3: […] Group 4: […] Group 5: Rats were fed high fat diet (40% of calories as fat) for 12 weeks. Group 6: Rats were fed high-fat diet (40% of calories as fat) and with chromium picolinate (14.3 μg, providing 1.43 μg chromium) included in the water for 12 weeks. Group 7: […] Group 8: […] Bodyweight, serum glucose, composite insulin sensitivity index (CISI), serum cholesterol, serum triglycerides and serum free fatty acid levels were measured. The baseline levels for the control rats (no chromium supplementation) that were fed normal or high fat diets are shown in Table 1, below. Serum glucose levels, serum cholesterol levels, serum triglyceride levels, and free fatty acid levels were measured in all groups after twelve weeks.

For data set [1] the following is noted: cited from earlier work.
A further data set concerns rats. To be noted: cited from earlier work.
The subject of another data set is skeletal muscle cells. The data set is described as follows: Glucose uptake ([3H]-deoxyglucose) in cultured skeletal muscle cells with or without insulin. In kind it is cell-based. The conditions noted are these: insulin-stimulated cells; versus cultures without chromium supplementation. On the procedure:
The following example describes experiments that compared the effects of chromium supplementation in the form of chromium picolinate versus a combination of chromium picolinate:chormium histidinate (1:1 elemental chromium) on glucose uptake in skeletal muscle cells. The amounts of chromium picolinate and the combination were adjusted so as to provide equimolar amounts of elemental chromium. […] To assess glucose uptake, [^3H]C-deoxyglucose was added to cultures of skeletal muscle, in media with or without insulin and with or without the indicated chromium supplementation. Uptake of the labeled glucose by the cells was calculated.

[2] abbreviates: rats fed a high fat diet (FIG. 4B).
[3] abbreviates: rats fed a high fat diet (FIG. 5B).
Setting [4] is: rats fed a normal diet (FIG. 4A).
Setting [5] is: rats fed a normal diet (FIG. 5A).

Regarding chromium histidinate, the “reduction in serum glucose levels compared with other chromium supplementation” value with Wistar rats (high fat diet rats (FIG. 2B)) and in the data set on Wistar rats (normal diet rats (FIG. 2A)) was “significantly greater degree than chromium picolinate” in each case. Moreover, the serum glucose levels entry in the data set on Wistar rats (high-fat fed rats) and in the data set with Wistar rats (normal diet rats) was “decreased serum glucose levels” each time. Moreover, the serum triglyceride levels result in the data set on Wistar rats (setting [2]) and in the data set with Wistar rats (setting [4]) was “significant decrease” in each case. In addition, the “free fatty acid levels” value in the data set with Wistar rats (setting [3]) and in the data set with Wistar rats (setting [5]) was “significant decrease” throughout. In addition, the “total serum cholesterol levels” value with Wistar rats is on record as “significant decrease”.
By pKa is commonly meant the negative logarithm of the acid dissociation constant. Turning to `N[C@@H](Cc1c[nH]cn1)C(=O)O` [histidine], the pKa in data set [1] is approximately 6.0.
Turning to `[Cl][Cr]([Cl])[Cl]` [chromium chloride], the toxic effects result in the data set with rats (rats, levels several thousand times the upper limit of the ESADDI for chromium for humans (based on body weight)) is reported as “without toxic effects”.
chromium picolinate: the glucose uptake entry with skeletal muscle cells is recorded as “stimulated glucose uptake”. In addition, the serum triglyceride levels entry in the data set with Wistar rats (setting [2]) and with Wistar rats (setting [4]) was “significant decrease” each time. In addition, the “free fatty acid levels” value in the data set with Wistar rats (setting [3]) and with Wistar rats (setting [5]) was “significant decrease” in each case. For the same compound, in the data set on Wistar rats, the “total serum cholesterol levels” value is “significant decrease”. Moreover, the toxic effects result with rats (rat, in vivo) was “without toxic effects”.
